Experiments:
Bcl-2-like protein 1 = Bcl-2-like protein 1 (Homo sapiens, UniProt Q07817); experiment: Binding affinity to Bcl-xL by competitive fluorescence polarization assay
[1] = target: Apoptosis regulator Bcl-2 (Homo sapiens, UniProt P10415); experiment: Binding affinity to Bcl-2 by competitive fluorescence polarization assay
[2] = target: Induced myeloid leukemia cell differentiation protein Mcl-1 (Homo sapiens, UniProt Q07820); experiment: Binding affinity to Mcl-1 by competitive fluorescence polarization assay
HCT-116 = experiment: Cytotoxicity against human HCT116 cells expressing Bcl-xL, Bcl-2 and Mcl-1 after 72 hrs by MTT assay; assay type: functional, cell-based; conditions: HCT-116, 72 h
Raji [3] = experiment: Cytotoxicity against human Raji cells expressing Bcl-xL, Bcl-2 and Mcl-1 after 72 hrs by MTT assay; assay type: functional, cell-based
MDA-MB-435 [4] = experiment: Cytotoxicity against human MDA-MB-435 cells expressing Bcl-xL, Bcl-2 and Mcl-1 after 72 hrs by MTT assay; assay type: functional, cell-based; conditions: MDA-MB-435, 72 h
Raji [5] = experiment: Cytotoxicity against human Raji cells expressing Bcl-xL, Bcl-2 and Mcl-1 at 100 ug/ml after 72 hrs by MTT assay relative to control; assay type: functional; conditions: read-out: GI
MDA-MB-435 [6] = experiment: Cytotoxicity against human MDA-MB-435 cells expressing Bcl-xL, Bcl-2 and Mcl-1 at 100 ug/ml after 72 hrs by MTT assay relative to control; assay type: functional; conditions: MDA-MB-435, 72 h, read-out: GI

Bcl-2-like protein 1, sequence (Q07817 whole entry): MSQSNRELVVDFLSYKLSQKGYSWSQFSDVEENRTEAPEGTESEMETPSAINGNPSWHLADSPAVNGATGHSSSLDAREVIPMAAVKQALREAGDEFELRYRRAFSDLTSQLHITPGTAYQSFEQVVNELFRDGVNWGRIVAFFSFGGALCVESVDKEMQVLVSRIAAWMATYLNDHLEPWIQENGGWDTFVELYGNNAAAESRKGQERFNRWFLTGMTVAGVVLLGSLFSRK
Induced myeloid leukemia cell differentiation protein Mcl-1, sequence (Q07820 whole entry): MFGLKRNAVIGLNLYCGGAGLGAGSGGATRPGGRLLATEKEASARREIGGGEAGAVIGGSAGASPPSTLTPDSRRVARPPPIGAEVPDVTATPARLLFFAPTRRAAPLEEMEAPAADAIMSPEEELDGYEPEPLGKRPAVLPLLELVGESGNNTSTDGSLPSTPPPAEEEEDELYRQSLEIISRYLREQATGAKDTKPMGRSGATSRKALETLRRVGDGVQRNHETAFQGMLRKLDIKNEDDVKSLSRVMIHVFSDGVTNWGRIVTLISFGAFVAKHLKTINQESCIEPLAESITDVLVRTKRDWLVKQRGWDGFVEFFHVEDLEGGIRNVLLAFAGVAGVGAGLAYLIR
Apoptosis regulator Bcl-2, sequence (P10415 whole entry): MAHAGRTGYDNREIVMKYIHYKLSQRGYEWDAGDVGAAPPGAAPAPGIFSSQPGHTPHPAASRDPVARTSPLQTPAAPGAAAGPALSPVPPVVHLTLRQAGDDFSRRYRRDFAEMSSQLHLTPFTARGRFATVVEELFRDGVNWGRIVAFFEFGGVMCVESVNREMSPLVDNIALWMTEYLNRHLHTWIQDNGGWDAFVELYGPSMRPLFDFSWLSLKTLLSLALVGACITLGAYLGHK

SMILES	Ki (Bcl-2-like protein 1) [µM]	Ki [1] [µM]	Ki [2] [µM]	IC50 (HCT-116) [µM]	IC50 (Raji [3]) [µM]	IC50 (MDA-MB-435 [4]) [µM]	inhibition of growth at 100 µg/mL (Raji [5]) [%]	inhibition of growth at 100 µg/mL (MDA-MB-435 [6]) [%]
O=C(NS(=O)(=O)c1ccc(NCCSc2ccccc2)c([N+](=O)[O-])c1)c1ccc(NS(=O)(=O)c2ccccc2)cc1	2.29	15.2	7.22	163	> 163	> 163		
Cc1ccc(C(=O)Nc2ccc(C(=O)NS(=O)(=O)c3ccc(NCCSc4ccccc4)c([N+](=O)[O-])c3)cc2)cc1				48.6	38.8	53		
CC(=O)N[C@@H](CC(C)C)C(=O)Nc1ccc(C(=O)NS(=O)(=O)c2ccc(NCCSc3ccccc3)c([N+](=O)[O-])c2)cc1	5.82	3.78	1.8				58.3	25.6
Cc1cccc(C(=O)Nc2ccc(C(=O)NS(=O)(=O)c3ccc(NCCSc4ccccc4)c([N+](=O)[O-])c3)cc2)c1				169	92.6	> 169		
CC(=O)N[C@@H](Cc1ccccc1)C(=O)Nc1ccc(C(=O)NS(=O)(=O)c2ccc(NCCSc3ccccc3)c([N+](=O)[O-])c2)cc1	3.42	3.39	3.11				26.8	36.6
O=C(Nc1ccc(C(=O)NS(=O)(=O)c2ccc(NCCSc3ccccc3)c([N+](=O)[O-])c2)cc1)c1ccc(Cl)cc1				43.4	37.5	49.9		
CC(=O)N[C@@H](Cc1c[nH]c2ccccc12)C(=O)Nc1ccc(C(=O)NS(=O)(=O)c2ccc(NCCSc3ccccc3)c([N+](=O)[O-])c2)cc1	6.45	0.83	4.03				31.8	9.36
Cc1ccccc1C(=O)Nc1ccc(C(=O)NS(=O)(=O)c2ccc(NCCSc3ccccc3)c([N+](=O)[O-])c2)cc1				161	38.8	47.6		
O=C(Nc1ccc(C(=O)NS(=O)(=O)c2ccc(NCCSc3ccccc3)c([N+](=O)[O-])c2)cc1)c1cccc(Cl)c1				33.1	37.5	46.7		
O=C(Nc1ccc(C(=O)NS(=O)(=O)c2ccc(NCCSc3ccccc3)c([N+](=O)[O-])c2)cc1)c1ccc(F)cc1	1.94	0.93	2.54	78.9	38.6	57.5		
CN(C)CC[C@H](CSc1ccccc1)Nc1ccc(S(=O)(=O)NC(=O)c2ccc(N3CCN(Cc4ccccc4-c4ccc(Cl)cc4)CC3)cc2)cc1[N+](=O)[O-] [ABT 737]				47.7	93.5	> 123	42.5	55.4
O=C(NS(=O)(=O)c1ccc(NCCSc2ccccc2)c([N+](=O)[O-])c1)c1ccc(NC(=O)c2ccccc2Cl)cc1				> 164	41.2	69.9		
CC[C@H](C)[C@H](NC(C)=O)C(=O)Nc1ccc(C(=O)NS(=O)(=O)c2ccc(NCCSc3ccccc3)c([N+](=O)[O-])c2)cc1	4.84	3.38	2.29				40.9	13.5

Second part, led by results:

Ki (Bcl-2-like protein 1) [µM]	Ki [1] [µM]	Ki [2] [µM]	SMILES	IC50 (HCT-116) [µM]	IC50 (Raji [3]) [µM]	IC50 (MDA-MB-435 [4]) [µM]	inhibition of growth at 100 µg/mL (Raji [5]) [%]	inhibition of growth at 100 µg/mL (MDA-MB-435 [6]) [%]
1.71	1.09	3.02	O=C(NS(=O)(=O)c1ccc(NCCSc2ccccc2)c([N+](=O)[O-])c1)c1ccc(NC(=O)c2ccccc2F)cc1	40	32.2	48.1		
1.27	0.8	3.11	COc1ccc(C(=O)Nc2ccc(C(=O)NS(=O)(=O)c3ccc(NCCSc4ccccc4)c([N+](=O)[O-])c3)cc2)cc1	14.6	22.9	36.1		
1.5	0.76	4.1	O=C(Nc1ccc(C(=O)NS(=O)(=O)c2ccc(NCCSc3ccccc3)c([N+](=O)[O-])c2)cc1)c1ccc(Br)cc1	10.5	35	39.5		
16.4	9.49	3.27	CC(=O)N[C@H](C(=O)Nc1ccc(C(=O)NS(=O)(=O)c2ccc(NCCSc3ccccc3)c([N+](=O)[O-])c2)cc1)C(C)C				8.85	6.33
2.08	1.4	3.09	O=C(Nc1ccc(C(=O)NS(=O)(=O)c2ccc(NCCSc3ccccc3)c([N+](=O)[O-])c2)cc1)c1cccc(F)c1	> 168	39.4	59.5		
3.91	3.52	3.11	CSCC[C@H](NC(C)=O)C(=O)Nc1ccc(C(=O)NS(=O)(=O)c2ccc(NCCSc3ccccc3)c([N+](=O)[O-])c2)cc1				40.1	16
2.51	1.67	4.16	O=C(Nc1ccc(C(=O)NS(=O)(=O)c2ccc(NCCSc3ccccc3)c([N+](=O)[O-])c2)cc1)c1ccccc1	136	39.8	59.9		
